# Measurements as given in patent US6620833B1, “Substituted benzimidazoles, production and use thereof as agents for combating parasitic protozoas” (Bayer Aktiengesellschaft, priority 1998, dated 2003).
# Tests used:
# Format in all cases: in vivo
# [1] = tested on: Eimeria acervulina, Eimeria maxima and Eimeria tenella; test: Cage experiment on coccidiosis/chicks, mixed experimental infection; settings: for dropping scores / lesion score: assessment 0 to 6; for mortality n: dead animals/animals employed
# Protocol: 8 to 12 day-old male chicks (e.g. LSL Brinkschulte/Senden) which have been reared coccidia-free receive the compounds according to the invention (test substances) in the concentration indicated in ppm with the feed from 3 days before (day −3) infection (=a.i.) until 8 (9) days after infection (=p.i.). 3 animals are kept in each cage. One or more groups of this type are employed per dose. Infection is carried out by means of a stomach tube directly into the crop with approximately 100,000 sporulated oocysts of Eimeria acervulina and with approximately 30,000 oocysts each of E. maxima and 40,000 sporulated oocysts of E. tenella. These are highly virulent strains. The exact infection dose is adjusted so that, if possible, one of three experimentally infected untreated chicks dies due to the infection. For assessment of the efficacy, the following criteria are taken into account: weight increase from the start of the experiment to the end of the experiment, death rate due to infection, macroscopic assessment of the faeces with respect to diarrhoea and excretion of blood on days 5 and 7 p.i. (assessment 0 to 6), macroscopic assessment of the intestinal mucosa, in particular of the appendices (assessment 0 to 6) and the oocyst excretion as well as the proportion (in %) of the oocysts sporulating in the course of 24 hours. The number of oocysts in the faeces was determined with the aid of a McMaster counting chamber (see Engelbrecht and coworkers “Parasitologische Arbeitsmethoden in Medizin and Veterinärmedizin” [Parasitological Working Methods in Medicine and Veterinary Medicine], Akademie-Verlag, Berlin (1965)). The individual findings are related to the untreated non-infected control groups and a total score is calculated (cf. A. Haberkorn (1986), pp. 263 to 270 in Research in Avian Coccidiosis ed L. R. McDougald, L. P. Joyner, P. L. Long, Proceedings of the Georgia Coccidiosis Conference, Nov. 18-20, 1985. Athens/Georgia USA).
# In the column “ppm”, the concentration of the active compound employed in the feed is indicated in ppm.
# In the column “mortality” the percentage of the dead animals is indicated under % and the number of dead animals/animals employed in the experiment is indicated under n.
# In the column “weight % of not inf. control” the ratio of the weight of the treated animals to the weight of the non-infected control group is indicated.
# In the columns “dropping scores”, “lesion score” and “oocyst control”, individual details of the action are given.
# In the column “% efficacy”, the total score is assessed; 0% means no action, 100% means full action.
# Eimeria acervulina = test: Cage experiment on coccidiosis/chicks, E. acervulina readout
# Eimeria maxima = test: Cage experiment on coccidiosis/chicks, E. maxima readout
# Eimeria tenella = test: Cage experiment on coccidiosis/chicks, E. tenella readout
smiles,measurement,setting,value
"CC[C@@]1([C@@H]2O[C@@H]([C@H]3O[C@@](O)(CO)[C@H](C)C[C@@H]3C)C[C@@H]2C)CC[C@H]([C@]2(C)CC[C@]3(C[C@H](O)[C@@H](C)[C@@H]([C@@H](C)[C@@H](OC)[C@H](C)C(=O)O)O3)O2)O1 [Mon., Monensin, reference compound]",% efficacy tot.,"[1]; Table 1, 25 ppm in feed",45%
same,mortality %,"[1]; Table 1, 25 ppm in feed",33%
same,oocyst in % of inf. control tot.,"[1]; Table 1, 25 ppm in feed",66%
same,weight % of not inf. control,"[1]; Table 1, 25 ppm in feed",36%
same,dropping scores,"[1]; Table 1, 25 ppm in feed",6
same,lesion score,"[1]; Table 1, 25 ppm in feed",6
same,mortality n,"[1]; Table 1, 25 ppm in feed",1/3
same,% efficacy tot.,"[1]; Table 1, 50 ppm in feed",36%
same,mortality %,"[1]; Table 1, 50 ppm in feed",33%
same,oocyst in % of inf. control tot.,"[1]; Table 1, 50 ppm in feed",19%
same,weight % of not inf. control,"[1]; Table 1, 50 ppm in feed",81%
same,dropping scores,"[1]; Table 1, 50 ppm in feed",6
same,lesion score,"[1]; Table 1, 50 ppm in feed",6
same,mortality n,"[1]; Table 1, 50 ppm in feed",1/3
same,% efficacy tot.,"[1]; Table 1, 100 ppm in feed",24%
same,mortality %,"[1]; Table 1, 100 ppm in feed",33%
same,oocyst in % of inf. control tot.,"[1]; Table 1, 100 ppm in feed",36%
same,weight % of not inf. control,"[1]; Table 1, 100 ppm in feed",30%
same,dropping scores,"[1]; Table 1, 100 ppm in feed",6
same,lesion score,"[1]; Table 1, 100 ppm in feed",6
same,mortality n,"[1]; Table 1, 100 ppm in feed",1/3
same,oocyst in % of inf. control ac.,"Eimeria acervulina; Table 1, 25 ppm in feed",98%
same,oocyst in % of inf. control ac.,"Eimeria acervulina; Table 1, 50 ppm in feed",44%
same,oocyst in % of inf. control ac.,"Eimeria acervulina; Table 1, 100 ppm in feed",8%
same,oocyst in % of inf. control max.,"Eimeria maxima; Table 1, 25 ppm in feed",0%
same,oocyst in % of inf. control max.,"Eimeria maxima; Table 1, 50 ppm in feed",0%
same,oocyst in % of inf. control max.,"Eimeria maxima; Table 1, 100 ppm in feed",0%
same,oocyst in % of inf. control ten.,"Eimeria tenella; Table 1, 25 ppm in feed",100%
same,oocyst in % of inf. control ten.,"Eimeria tenella; Table 1, 50 ppm in feed",13%
same,oocyst in % of inf. control ten.,"Eimeria tenella; Table 1, 100 ppm in feed",100%
"CC[C@@H](C(=O)[C@@H](C)[C@@H](O)[C@H](C)[C@@H]1O[C@@H]([C@@H](CC)C(=O)O)CC[C@@H]1C)[C@H]1O[C@]2(C=C[C@@H](O)[C@]3(CC[C@@](C)([C@H]4CC[C@](O)(CC)[C@H](C)O4)O3)O2)[C@H](C)C[C@@H]1C [Sal., Salinomycin, reference compound]",mortality %,"[1]; Table 3, 15 ppm in feed",100%
same,mortality n,"[1]; Table 3, 15 ppm in feed",3/3
same,mortality %,"[1]; Table 3, 30 ppm in feed",100%
same,mortality n,"[1]; Table 3, 30 ppm in feed",3/3
same,% efficacy tot.,"[1]; Table 3, 60 ppm in feed",67%
same,mortality %,"[1]; Table 3, 60 ppm in feed",0%
same,oocyst in % of inf. control tot.,"[1]; Table 3, 60 ppm in feed",12%
same,weight % of not inf. control,"[1]; Table 3, 60 ppm in feed",106%
same,dropping scores,"[1]; Table 3, 60 ppm in feed",6
same,lesion score,"[1]; Table 3, 60 ppm in feed",1.3
same,mortality n,"[1]; Table 3, 60 ppm in feed",0/3
same,oocyst in % of inf. control ac.,"Eimeria acervulina; Table 3, 60 ppm in feed",6%
same,oocyst in % of inf. control max.,"Eimeria maxima; Table 3, 60 ppm in feed",0%
same,oocyst in % of inf. control ten.,"Eimeria tenella; Table 3, 60 ppm in feed",31%
